According to article PMC6325200, “Effects of Microplate Type and Broth Additives on Microdilution MIC Susceptibility Assays” (Antimicrobial Agents and Chemotherapy, 2018):

Assays:
Experiment in all cases: microbe, parasite or virus in culture
E. coli ATCC 25922 = conditions: n = 2
Protocol: A positive control of a row of just the bacteria and a negative control of only the medium were included for every plate tested.
The compounds along with standard antibiotics were serially diluted 2-fold across the 96-well plates. […] A sample of each culture was then diluted 40-fold in fresh MH broth (in presence and absence of Tween) and incubated at 37°C for 2 to 3 h.
For experiments in the presence of surfactant, 2% beractant (25 mg/ml) was added to the mid-log-phase cultures and mixed gently and added to all the 96-well plates. For experiments in the presence of serum, a mixture of 50% of human serum along with 50% MHB was prepared and used throughout the experiment.

A. baumannii ATCC 19606 = conditions: Acinetobacter baumannii, n = 2
Summary of the method: (§1)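 Every plate included two controls, one row of bacteria alone and one of medium only. Test agents and standard antibiotics underwent twofold dilution series in 96-well format, and cultures were diluted 40-fold into MH broth in the presence or absence of Tween before 2–3 h at 37°C.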

P. aeruginosa ATCC 10145 = conditions: Pseudomonas aeruginosa, n = 2
Summary of the method: as §1

K. pneumoniae ATCC 13883 = conditions: Klebsiella pneumoniae, n = 2
Summary of the method: as §1

Measured: MIC

Cc1onc(-c2ccccc2)c1C(=O)N[C@@H]1C(=O)N2[C@@H]1SC(C)(C)[C@@H]2C(=O)O [Oxacillin, oxacillin]
> 64 µg/mL: E. coli ATCC 25922; Corning NBS plate, MHB +0.002% T80, no further additive | E. coli ATCC 25922; Corning NBS plate, MHB −T80, no additive | E. coli ATCC 25922; Corning PS plate, MHB +0.002% T80, no further additive | E. coli ATCC 25922; Corning PS plate, MHB −T80, no additive | E. coli ATCC 25922; Corning TC plate, MHB +0.002% T80, no further additive | E. coli ATCC 25922; Corning TC plate, MHB −T80, no additive | E. coli ATCC 25922; Escherichia coli, ATCC25922, 24 h, Corning NBS, MH + 2% LHB, 2% LS | E. coli ATCC 25922; Escherichia coli, ATCC25922, 24 h, Corning NBS, MH + 2% LHB, 50% HS | E. coli ATCC 25922; Escherichia coli, ATCC25922, 24 h, Corning NBS, MH + 2% LHB, no additive | E. coli ATCC 25922; Escherichia coli, ATCC25922, 24 h, Corning NBS, MH + T80, 2% LS | E. coli ATCC 25922; Escherichia coli, ATCC25922, 24 h, Corning NBS, MH + T80, 50% HS | E. coli ATCC 25922; Escherichia coli, ATCC25922, 24 h, Corning PS, MH + 2% LHB, 2% LS | E. coli ATCC 25922; Escherichia coli, ATCC25922, 24 h, Corning PS, MH + 2% LHB, 50% HS | E. coli ATCC 25922; Escherichia coli, ATCC25922, 24 h, Corning PS, MH + 2% LHB, no additive | E. coli ATCC 25922; Escherichia coli, ATCC25922, 24 h, Corning PS, MH + T80, 2% LS | E. coli ATCC 25922; Escherichia coli, ATCC25922, 24 h, Corning PS, MH + T80, 50% HS | E. coli ATCC 25922; Escherichia coli, ATCC25922, 24 h, Corning TC, MH + 2% LHB, 2% LS | E. coli ATCC 25922; Escherichia coli, ATCC25922, 24 h, Corning TC, MH + 2% LHB, 50% HS | E. coli ATCC 25922; Escherichia coli, ATCC25922, 24 h, Corning TC, MH + 2% LHB, no additive | E. coli ATCC 25922; Escherichia coli, ATCC25922, 24 h, Corning TC, MH + T80, 2% LS | E. coli ATCC 25922; Escherichia coli, ATCC25922, 24 h, Corning TC, MH + T80, 50% HS | E. coli ATCC 25922; Escherichia coli, ATCC25922, 24 h, Trek PS, MH + 2% LHB, 2% LS | E. coli ATCC 25922; Escherichia coli, ATCC25922, 24 h, Trek PS, MH + 2% LHB, 50% HS | E. coli ATCC 25922; Escherichia coli, ATCC25922, 24 h, Trek PS, MH + 2% LHB, no additive | E. coli ATCC 25922; Escherichia coli, ATCC25922, 24 h, Trek PS, MH + T80, 2% LS | E. coli ATCC 25922; Escherichia coli, ATCC25922, 24 h, Trek PS, MH + T80, 50% HS | E. coli ATCC 25922; Escherichia coli, ATCC25922, Corning NBS plate, MHB +0.002% T80, no further additive | E. coli ATCC 25922; Escherichia coli, ATCC25922, Corning NBS plate, MHB −T80, no additive | E. coli ATCC 25922; Escherichia coli, ATCC25922, Corning NBS, MH, 2% LS | E. coli ATCC 25922; Escherichia coli, ATCC25922, Corning NBS, MH, 50% HS | E. coli ATCC 25922; Escherichia coli, ATCC25922, Corning PS plate, MHB +0.002% T80, no further additive | E. coli ATCC 25922; Escherichia coli, ATCC25922, Corning PS plate, MHB −T80, no additive | E. coli ATCC 25922; Escherichia coli, ATCC25922, Corning PS, MH, 2% LS | E. coli ATCC 25922; Escherichia coli, ATCC25922, Corning PS, MH, 50% HS | E. coli ATCC 25922; Escherichia coli, ATCC25922, Corning TC plate, MHB +0.002% T80, no further additive | E. coli ATCC 25922; Escherichia coli, ATCC25922, Corning TC plate, MHB −T80, no additive | E. coli ATCC 25922; Escherichia coli, ATCC25922, Corning TC, MH, 2% LS | E. coli ATCC 25922; Escherichia coli, ATCC25922, Corning TC, MH, 50% HS | E. coli ATCC 25922; Escherichia coli, ATCC25922, Nunc PS plate, MHB +0.002% T80 | E. coli ATCC 25922; Escherichia coli, ATCC25922, Nunc PS plate, MHB −T80 | E. coli ATCC 25922; Escherichia coli, ATCC25922, Nunc U TC plate, MHB +0.002% T80 | E. coli ATCC 25922; Escherichia coli, ATCC25922, Nunc U TC plate, MHB −T80 | E. coli ATCC 25922; Escherichia coli, ATCC25922, Nunc flat TC plate, MHB +0.002% T80 | E. coli ATCC 25922; Escherichia coli, ATCC25922, Nunc flat TC plate, MHB −T80 | E. coli ATCC 25922; Escherichia coli, ATCC25922, Trek PS plate, MHB +0.002% T80, no further additive | E. coli ATCC 25922; Escherichia coli, ATCC25922, Trek PS plate, MHB −T80, no additive | E. coli ATCC 25922; Escherichia coli, ATCC25922, Trek PS, MH, 2% LS | E. coli ATCC 25922; Escherichia coli, ATCC25922, Trek PS, MH, 50% HS | A. baumannii ATCC 19606; ATCC19606, Corning NBS, MHB +T80 | A. baumannii ATCC 19606; ATCC19606, Corning NBS, MHB -T80 | A. baumannii ATCC 19606; ATCC19606, Corning PS, MHB +T80 | A. baumannii ATCC 19606; ATCC19606, Corning PS, MHB -T80 | A. baumannii ATCC 19606; ATCC19606, Corning TC, MHB +T80 | A. baumannii ATCC 19606; ATCC19606, Corning TC, MHB -T80 | P. aeruginosa ATCC 10145; ATCC10145, Corning NBS, MHB +T80 | P. aeruginosa ATCC 10145; ATCC10145, Corning NBS, MHB -T80 | P. aeruginosa ATCC 10145; ATCC10145, Corning PS, MHB +T80 | P. aeruginosa ATCC 10145; ATCC10145, Corning PS, MHB -T80 | P. aeruginosa ATCC 10145; ATCC10145, Corning TC, MHB +T80 | P. aeruginosa ATCC 10145; ATCC10145, Corning TC, MHB -T80 | K. pneumoniae ATCC 13883; ATCC13883, Corning NBS, MHB +T80 | K. pneumoniae ATCC 13883; ATCC13883, Corning NBS, MHB -T80 | K. pneumoniae ATCC 13883; ATCC13883, Corning PS, MHB +T80 | K. pneumoniae ATCC 13883; ATCC13883, Corning PS, MHB -T80 | K. pneumoniae ATCC 13883; ATCC13883, Corning TC, MHB +T80 | K. pneumoniae ATCC 13883; ATCC13883, Corning TC, MHB -T80
